In PMC5997364, “OG716: Designing a fit-for-purpose lantibiotic for the treatment of Clostridium difficile infections” (PLoS ONE, 2018):
Values after ≈ are worked out from the molar mass of the structure shown. Values joined by “and” are separate entries in the source; they are usually repeats but may differ in a detail not shown here. Equal entries are not always repeated. Where two headings read alike, the source gives them in different places. Ends that are not written are not given here.

Legend:
C. difficile [1] = experiment: microbe, parasite or virus in culture; assay type: cell-based, Clostridium difficile
Description: MIC testing for C. difficile was performed by Eurofins Panlabs Taiwan LTD based on modifications from the CLSI M11-A8 broth dilution method for Bacteroides fragilis susceptibility testing. Briefly, Reinforced Clostridial Medium (RCM) was pre-reduced by over-night incubation in an anaerobic chamber (80% N2, 10% CO2, and 10% H2) prior to use. MU1140 and variants were dissolved in 100% DMSO, diluted by 2-fold serial dilution in 100% DMSO, for a total of 11 concentrations. A 4 μL aliquot of each dilution was added to 96 μL RCM in wells of a 96 well plate using a Biomek FX instrument (Beckman Coulter, USA), followed by the addition of C. difficile suspension, in RCM, 100 μL/well. The final bacterial count was 2 x 10^5 to 1 x 10^6 colony forming units/mL, in 200 μL per assay well. […] Assay plates were incubated at 35°C for 46 to 48 hr in the anaerobic chamber (A35 Anaerobic Workstation, Don Whitley, UK). Following incubation, test plates were visually examined and each well was scored for growth then the MIC was recorded as the lowest concentration that results in complete inhibition of growth. Each test substance was evaluated in duplicate. Vehicle-control and vancomycin were used as blank and positive controls, respectively. The MIC values of the vancomycin controls were consistent with the historical data against test strains (data not shown).

C. difficile UNT103-1 = experiment: Golden Syrian hamster model of CDAD, oral gavage efficacy; assay type: in vivo
Description: In vivo efficacy was performed as previously described in detail, except that the compounds were administered via oral gavage (rather than the illeal cannulation method used previously). This study was carried out in accordance with protocols 2016–0015 approved by the Institutional Animal Care and Use Committee (IACUC) at the University of North Texas Health Science Center (UNTHSC). IACUC established guidelines ensuring that approved protocols are in compliance with federal and state laws regarding animal care and use activity at UNTHSC. The UNTHSC animal program in USDA registered (74-R0081) and fully AAALAC accredited.
Briefly, 7–8 weeks old Male Golden Syrian hamsters were used in this study, and weighted 100–120 g (Charles River Laboratories, Wilmington, MA). C. difficile UNT103-1 (VA11, non epidemic (cdtB-, REA group J) was received from Curtis Donskey, Cleveland VA Hospital, Cleveland, OH) and cultured as previously described. The isolate has been previously utilized for the hamster model by the University of North Texas Health Sciences Center (UNTHSC). The infection inoculum was tested to determine the ratio of spores to vegetative cells. In accordance with the details in Table 2, a total of 60 animals were used in this study. Animals were randomized into the 10 study groups (N = 6 per group) prior to treatment. On Day 0, animals were infected with 5.63 x 10^7 total CFU of which 2.81 x 10^4 represented inoculated spores. On Day 1, at 24 hrs post-infection, all animals received a single subcutaneous injection of clindamycin (10 mg/kg). Test articles in 5% mannitol were then administered orally 3x per day (TID), starting on Day 2 at 18 hours after clindamycin injection, for 5 consecutive days (Days 2 through 6). USP-grade vancomycin (positive control) was prepared in water for injection (WFI) at 50 mg/mL and stored refrigerated during the course of the study. […] Data was analyzed using GraphPad Prism 6.0d. […]

[2] = Solubility 5% D-mannitol, 5% D-mannitol in water, visual assessment
Description: (§1) To that end, approximately 10 mg of each compound was weighed on a high-precision balance and dispensed into a 1.5 mL microfuge tube.

[3] = 1.0 mg/mL in water
Description: Five aliquots of each compound were prepared by dissolving them to 1.0 mg/mL in HPLC grade water (Fisher Scientific, USA). A total of 2 aliquots of the solution were placed in a 37°C stability chamber, and 2 aliquots were placed in a 50°C chamber. Samples were collected on days 0, 2 and 7, centrifuged at 12,000 x g for 5 min, and the supernatants were transferred to a fresh tube. Each sample was diluted 1:4 with 0.05% trifluoroacetic acid (TFA) and the purity and quantity were analyzed by HPLC as described above.

[4] = 5% D-mannitol
Description: as §1

[5] = FaSSIF with trypsin/chymotrypsin
Description: FaSSIF was supplemented with 2% pancreatin (w/v), 6 μg/mL of trypsin and 6 μg/mL of α-chymotrypsin and was prepared as previously reported [22]. All proteases were from Fisher ScientificSamples were collected at the same frequency as in the FaSSGF study, and analyzed using the same method.

[6] = parameters: method as in earlier work; details: cited from earlier work
C. difficile [7] = test system: C. difficile; parameters: method as in PMID 20974818; details: cited from earlier work
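For Forced degradation Δ Conc in this document: purity and concentration determined by HPLC on aqueous solutions kept in a stability chamber, with samples analyzed at day 0 and after incubation.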
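For Forced degradation Δ Purity in this document: purity and concentration determined by HPLC on aqueous solutions kept in a stability chamber, with samples analyzed at day 0 and after incubation.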

Compound	MIC 50 (C. difficile [1]) [µg/mL]	MIC 90 (C. difficile [1]) [µg/mL]	MIC Mode (C. difficile [1]) [µg/mL]	MIC Range (C. difficile [1]) [µg/mL]	Minimum Inhibitory Concentration C. difficile 103-1 (C. difficile [1]) [µg/mL]	Minimum Inhibitory Concentration C. difficile 107-1 (C. difficile [1]) [µg/mL]	Minimum Inhibitory Concentration C. difficile ATCC 9689 (C. difficile [1]) [µg/mL]	Minimum Inhibitory Concentration C. difficile ATCC 43597 (C. difficile [1]) [µg/mL]	Minimum Inhibitory Concentration C. difficile ATCC BAA-1805 (C. difficile [1]) [µg/mL]	Minimum Inhibitory Concentration C. difficile ATCC BAA-1808 (C. difficile [1]) [µg/mL]	Minimum Inhibitory Concentration C. difficile ATCC BAA-1874 (C. difficile [1]) [µg/mL]	Minimum Inhibitory Concentration C. difficile ATCC BAA-1875 (C. difficile [1]) [µg/mL]	solubility [2] [µg/mL]	Forced degradation Δ Conc ([3]; 2 Days at 37°C)	Forced degradation Δ Purity ([3]; 2 Days at 37°C) [%]	Forced degradation Δ Conc ([3]; 2 Days at +50°C)	Forced degradation Δ Purity ([3]; 2 Days at +50°C) [%]	Forced degradation Δ Conc ([3]; 7 Days at 37°C)	Forced degradation Δ Purity ([3]; 7 Days at 37°C) [%]	Forced degradation Δ Conc ([3]; 7 Days at +50°C)	also measured
CN[C@H](CC(C)C)C(=O)N[C@H]1C(=O)N[C@@H](CC(N)=O)C(=O)N[C@H]2C(=O)N[C@H]3C(=O)N[C@H](C(=O)N[C@H](C(=O)O)c4cc(O)cc(O)c4-c4cc3ccc4O)[C@H](O)c3ccc(c(Cl)c3)Oc3cc2cc(c3O[C@@H]2O[C@H](CO)[C@@H](O)[C@H](O)[C@H]2O[C@H]2C[C@](C)(N)[C@H](O)[C@H](C)O2)Oc2ccc(cc2Cl)[C@H]1O [Vancomycin, reference compound]	–	–	–	–	–	–	–	–	–	–	–	–	–	–	–	–	–	–	–	–	Minimum Inhibitory Concentration C. difficile Range (C. difficile [1]; 8 C. difficile strains): 0.5 to 4 mg/mL; MIC 50 (C. difficile [1]; Clostridioides difficile): 0.5 µg/mL (≈ 0.345 µM); MIC 90 (C. difficile [1]; Clostridioides difficile): 4 µg/mL (≈ 2.76 µM); MIC Range (C. difficile [1]; panel of C. difficile strains, n = 8): 0.5 to 4 µg/mL; survival (C. difficile UNT103-1; 20 mg/kg oral gavage x 5 days (test compounds TID, vancomycin QD), outcome of the study (Day 21)): 83%; C. difficile spore count of cecal samples (C. difficile UNT103-1; 20 mg/kg oral gavage x 5 days, cecal contents at death or Day 21): 2.96 log10 CFU/mL; spore counts compared to control (vehicle-treated) animals (C. difficile UNT103-1; cecal contents at death or Day 21): significantly lower
C=C1NC(=O)[C@H](Cc2c[nH]c3ccccc23)NC(=O)[C@H](NC(=O)[C@H](CCCCN)NC(=O)[C@@H](N)[C@@H](C)CC)CSC[C@@H](C(=O)N[C@H]2C(=O)N3CCC[C@H]3C(=O)NCC(=O)N[C@H](C(=O)N[C@@H](C)C(=O)N[C@@H](CC(=O)O)C(=O)N/C(=C\C)C(=O)NCC(=O)N[C@@H]3CSC[C@@H]4NC(=O)[C@H](Cc5ccc(O)cc5)NC(=O)[C@@H](CS/C=C\NC4=O)NC(=O)[C@H](CC(N)=O)NC(=O)[C@H](Cc4ccccc4)NC3=O)CS[C@H]2C)NC(=O)[C@H](CC(C)C)NC1=O [OG703]	1 (≈ 0.457 µM)	2 (≈ 0.913 µM)	1 (≈ 0.457 µM)	0.5 to 2	0.5	2	2	1	1	1	0.5	1	7000 (≈ 3200 µM)	-9.2% and -9%	-0.97	-15%	-1.74	-13.4% and -13%	-1.04	-30.3% and -30%	Forced degradation Δ Purity ([3]; 7 Days at +50°C): -4.79%; solubility reduced relative to OG706 [4]: 2-3 fold
C=C1NC(=O)[C@H](Cc2c[nH]c3ccccc23)NC(=O)[C@H](NC(=O)[C@H](CCCCN)NC(=O)[C@@H](N)[C@@H](C)CC)CSC[C@@H](C(=O)N[C@H]2C(=O)N3CCC[C@H]3C(=O)NCC(=O)N[C@H](C(=O)N[C@@H](C)C(=O)N[C@@H](C)C(=O)N/C(=C\C)C(=O)NCC(=O)N[C@@H]3CSC[C@@H]4NC(=O)[C@H](Cc5ccc(O)cc5)NC(=O)[C@@H](CS/C=C\NC4=O)NC(=O)[C@H](CC(N)=O)NC(=O)[C@H](Cc4ccccc4)NC3=O)CS[C@H]2C)NC(=O)[C@H](CC(C)C)NC1=O [OG711]	0.5 (≈ 0.233 µM)	1 (≈ 0.466 µM)	0.25 (≈ 0.117 µM)	0.25 to 1	0.25	1	1	0.5	0.25	0.25	0.5	0.5	12000 to 18000 (≈ 5590 to 8390 µM)	-12.5% and -13%	-1.24	-8.7% and -9%	-0.61	-10.8% and -11%	-0.63	-40.1% and -40%	Forced degradation Δ Purity ([3]; 7 Days at +50°C): -2.94%; improvement in half-life in FaSSIF (stability to proteolytic degradation) relative to OG253 [5]: > 50 fold
CCc1c(Cl)c(O)c(Cl)c(O)c1C(=O)O[C@H]1[C@H](O)[C@H](OC)[C@H](OC/C2=C\C=C\C[C@H](O)/C(C)=C/[C@H](CC)[C@@H](O[C@@H]3OC(C)(C)[C@@H](OC(=O)C(C)C)[C@H](O)[C@@H]3O)/C(C)=C/C(C)=C/C[C@@H]([C@@H](C)O)OC2=O)O[C@@H]1C [fidaxomycin]	–	–	–	–	–	–	–	–	–	–	–	–	–	–	–	–	–	–	–	–	solubility in water [6]: 12.5 µg/mL (≈ 11.8 µM)
gallidermin (IASKFLCTPGCAKTGSFNSYCC; also: lantibiotic (lanthionine rings and dehydro residues not given here); UniProt P21838 31-52, looked up) [lantibiotic / cationic antimicrobial peptide]	–	–	–	–	–	–	–	–	–	–	–	–	–	–	–	–	–	–	–	–	MIC increase of C. difficile (C. difficile [7]; cpr induction in vitro): 2–4 fold; MIC of C. difficile (C. difficile [7]; level reached after MIC increase (cpr induction)): ~ 1 μg/ml
